Active and inactive are the calls of the source. No cut-off for these calls is given here.
Legend:
[1] = system: KG-1; test: Induction of apoptosis in human KG-1 cells assessed as increase in cleaved active caspase 3 level at 0.5 to […] measured after 24 hrs by Western blot analysis; format: functional, cell-based; details: dose 0.5-2.5 µM
[2] = system: KG-1; test: Induction of apoptosis in human KG-1 cells assessed as total apoptotic cells at 1 uM measured after 24 hrs by Annexin V-FITC/propidium iodide staining based flow cytometry analysis relative to control; format: functional
[3] = system: B16-F10; test: Antitumor immunity against mouse B16-F10 cells implanted in C57BL/6J mouse assessed as increase in proportion of T cells in spleen by flow cytometry analysis; format: functional, cell-based
[4] = system: B16-F10; test: Antitumor immunity against mouse B16-F10 cells implanted in C57BL/6J mouse assessed as fold increase in ICOS expression by flow cytometry analysis relative to control; format: functional

Q: What does the source list for `O=C(CCCCCCOc1cccc(-c2nc3ccccc3[nH]2)c1)NO`?
A: Activity [1]: Active; Activity [2]: 56.9%; Activity [3]: Active

Q: `O=C(CCCCCCCOc1cccc(-c2nc3ccccc3[nH]2)c1)NO` was tested. Which “fold change (FC)” value [4] did it give?
A: 1.5

— ChEMBL document CHEMBL5038666, “Discovery of DNA-Targeting HDAC Inhibitors with Potent Antitumor Efficacy In Vivo That Trigger Antitumor Immunity” (J Med Chem, 2022)
